{"source": "patent US20230265391A1", "about": "“METHODS AND COMPOSITIONS FOR MAKING AND USING ENDOCARDIAL CELLS” (University Health Network, priority 2020, published 2023)", "format_in_all_cases": "cell-based, human", "key": {"[1]": {"system": "NKX2-5+ CD31+ cells", "assay": "Generation of NKX2-5+ CD31+ cells from hPSC-derived cardiogenic mesoderm (flow cytometry)", "procedure": "To generate endocardial/endothelial cells, hPSCs were differentiated to cardiogenic mesoderm using the protocol described above. At day 3, the EBs were dissociated with TrypLE for 3 min at 37° C. and the cells plated in 96-well flat bottom microplates (Falcon) coated with Matrigel (25% v/v, Corning) at a density of 10e5 cells per well. The monolayers were cultured in StemPro-34 supplemented with penicillin/streptomycin (1%, ThermoFisher), L-glutamine (2 mM, ThermoFisher), ascorbic acid (50 μg/ml, Sigma), monothioglycerol (50 μg/ml, Sigma), transferrin (150 μg/ml, ROCHE) and rhbFGF (50 ng/ml, R&D). For endocardial induction, rhBMP10 (10 ng/ml) was added to the media from day 5 to day 9. For generation of control endothelial cells, VEGFA (100 ng/mL, R&D) was added to the differentiation media from day 3 to day 9. The cultures were incubated in a low oxygen environment (5% CO2, 5%O2, 90% N2) and the media was changed every 2 days. At day 9, HES3-NKX2-5eGFP/w-derived endocardial/endothelial cells were analyzed and isolated based on the expression of NKX2-5:GFP and CD31. The endocardial cells generated from the non-transgenic hPSC lines were analyzed and isolated as CD31+ populations. For dissociation, the monolayers were incubated in Collagenase type 2 (1 mg/ml, Worthington) in HANKs buffer at 37° C. for one hour.\nDay 3 EBs were dissociated with TrypLE for 3 min at 37° C. Day 9-23 EBs or mixed populations of cardiomyocytes and endocardial/endothelial cells were dissociated by incubation in Collagenase type 2 (1 mg/ml, Worthington) in HANKS buffer at 37° C. for one hour followed by TrypLE treatment (5 min at 37° C.). The following antibodies were used for staining: anti-SIRPA-PeCy7 (Biolegend, 1:1000), anti-CD31-PE (BD Pharmingen, 1:100), anti-CD31-FITC (BD Pharmingen, 1:100), anti-CD31-AF647 (BD Pharmingen, 1:100), anti-CD90-APC (BD Pharmingen, 1:1000), anti-PDGFRB-BV421 (BD Pharmingen, 1:100), anti-CD105-APC (eBioscience, 1:200), anti-CD56-APC (BD Pharmingen, 1:100), anti-PDGFRA-PE (BD Pharmingen, […]), anti-CD36-APC (Biolegend, 1:100), anti-LDLR-BV421 (Biolegend, 1:100), anti-cardiac isoform of CTNT (ThermoFisher Scientific, 1:2000), or anti-myosin light chain 2 (Abcam, 1:1000), anti-ANP (Abcam, 1:500). For unconjugated primary antibodies, the following secondary antibodies were used for detection: goat anti-mouse IgG-APC (BD Pharmigen, 1:250), or donkey anti-rabbit IgG-AF488 (ThermoFisher Scientific, 1:1000). Detailed antibody information is described in the Key Resources Table. For cell-surface marker analyses, cells were stained for 30 min at 4° C. in FACS buffer consisting of PBS with 5% fetal calf serum (FCS) (Wisent) and 0.02% sodium azide. For intracellular staining, cells were fixed for 15 min at 4° C. with 4% PFA in PBS followed by permeabilization using 90% methanol for 20 min at 4° C. Cells were washed with PBS containing 0.5% BSA (Sigma) and stained with unconjugated primary antibodies in FACS buffer overnight at 4° C. Stained cells were washed with PBS with 0.5% BSA and stained with secondary antibodies in FACS buffer for 1 h at 4° C. Stained cells were analyzed using an LSR II Flow cytometer (BD). For cell sorting, cells were stained, washed and kept in IMDM with 0.2% KnockOut™ serum replacement and sorted using either Influx (BD), FACSAriaII (BD), MoFlo-XDP (BD) of FACSAria Fusion (BD) cells sorter at the Sickids/UHN flow cytometry facility. Data were analyzed using FlowJo software (Tree Star).\nInitial experiments were set up to identify the signaling pathways that would promote the generation of a NKX2-5+ CD31+ cell that we propose represents the earliest stage of human endocardial development. The transgenic HES3-NKX2-5eGFP/w reporter line (Elliott et al., 2011, Nat. Methods, 8(12):1037-40) was used to allow for the identification of NKX2-5+ cells by flow cytometry. […]"}, "[2]": {"system": "NKX2-5+ CD31+ endocardial-like cells and SIRPA+ cardiomyocytes", "assay": "Co-culture of NKX2-5+ CD31+ endocardial-like cells (HES3-NKX2-5eGFP/w) with SIRPA+ cardiomyocytes", "procedure": "(§1) For culture in the absence of cardiomyocytes, the endocardial or control endothelial cells (HES3-NKX2-5eGFP/w line) isolated at day 9 of differentiation were plated in a 96-well flat bottom microplate (Falcon) coated with Matrigel (25% v/v, Corning) at a density 2.5×10e4 cells per well in StemPro-34 supplemented with penicillin/streptomycin (1%, ThermoFisher), L-glutamine (2 mM, ThermoFisher), ascorbic acid (50 μg/ml, Sigma), monothioglycerol (50 μg/ml, Sigma), rhVEGFA (100 ng/ml, R&D) with or without rhBMP10 (10 ng/ml) or rhBMP4 (10 ng/ml). For co-culture of the two cell types, 5×10e4 hPSC-derived SIRPA+ cardiomyocytes (day 9) were mixed together with either 2.5×10e4 HES3-NKX2-5eGFP/w- or 5×10e4 HES2:RFP-derived endocardial or endothelial cells and cultured for 8 days in 96-well flat bottom microplates (Falcon) coated with Matrigel (25% v/v, Corning) in StemPro-34 supplemented with penicillin/streptomycin (1%, ThermoFisher), L-glutamine (2 mM, ThermoFisher), ascorbic acid (50 μg/ml, Sigma), monothioglycerol (50 μg/ml, Sigma) and rhVEGFA (100 ng/ml, R&D). For inhibition of the NRG-ERBB pathway lapatinib (10 μM, LC labs) was added to the media. Control cardiomyocytes were cultured as aggregates as described above in the same media with or without NRG1 (50 ng/ml). The cultures were incubated in a normoxic environment (5% CO2) and the media was changed every 2 days. […]"}, "[3]": {"system": "RFP+ CD31+ endocardial-like cells and SIRPA+ cardiomyocytes", "assay": "Co-culture of HES2-RFP CD31+ endocardial-like cells with HES2-GFP SIRPA+ cardiomyocytes", "conditions": "lapatinib 10 μM, 8 days co-culture, VEGFA 100 ng/ml", "procedure": "as §1"}, "[4]": {"system": "NKX2-5+ CD31+ endocardial-like cells", "assay": "8-day culture of sorted day 9 NKX2-5+ CD31+ endocardial-like or control endothelial cells with VEGFA and BMP", "procedure": "For culture in the absence of cardiomyocytes, the endocardial or control endothelial cells (HES3-NKX2-5eGFP/w line) isolated at day 9 of differentiation were plated in a 96-well flat bottom microplate (Falcon) coated with Matrigel (25% v/v, Corning) at a density 2.5×10e4 cells per well in StemPro-34 supplemented with penicillin/streptomycin (1%, ThermoFisher), L-glutamine (2 mM, ThermoFisher), ascorbic acid (50 μg/ml, Sigma), monothioglycerol (50 μg/ml, Sigma), rhVEGFA (100 ng/ml, R&D) with or without rhBMP10 (10 ng/ml) or rhBMP4 (10 ng/ml). For co-culture of the two cell types, 5×10e4 hPSC-derived SIRPA+ cardiomyocytes (day 9) were mixed together with either 2.5×10e4 HES3-NKX2-5eGFP/w- or 5×10e4 HES2:RFP-derived endocardial or endothelial cells and cultured for 8 days in 96-well flat bottom microplates (Falcon) coated with Matrigel (25% v/v, Corning) in StemPro-34 supplemented with penicillin/streptomycin (1%, ThermoFisher), L-glutamine (2 mM, ThermoFisher), ascorbic acid (50 μg/ml, Sigma), monothioglycerol (50 μg/ml, Sigma) and rhVEGFA (100 ng/ml, R&D). For inhibition of the NRG-ERBB pathway lapatinib (10 μM, LC labs) was added to the media. Control cardiomyocytes were cultured as aggregates as described above in the same media with or without NRG1 (50 ng/ml). The cultures were incubated in a normoxic environment (5% CO2) and the media was changed every 2 days.\nTo further investigate differences between these pathway agonists, BMP10-induced NKX2-5+ CD31+ cells were cultured in the presence of different concentrations of either BMP4 or BMP10 for 8 days. VEGFA was added to maintain the endothelial phenotype of the cells during this culture period."}, "[5]": {"system": "NKX2-5+ CD31+ cells", "assay": "Generation of NKX2-5+ CD31+ cells from hPSC-derived cardiogenic mesoderm (flow cytometry)", "conditions": "BMP alone (10 ng/ml) in the absence of bFGF; day 9"}}, "data": [{"molecule": "Cc1c[nH]c(-c2cnc(NCCNc3ccc(C#N)cn3)nc2-c2ccc(Cl)cc2Cl)n1", "note": "[CHIR99021, reference compound]", "values": [{"measurement": "total number of NKX2-5+ CD31+ cells produced", "setting": "[1]; 1 μM CHIR99021 for 2, 4 or 6 days from day 3, day 9", "result": "did not impact"}, {"measurement": "frequency of NKX2-5+ CD31+ cells", "setting": "[1]; 1 μM CHIR99021 for 6 days from day 3, day 9", "result": "decrease"}]}, {"molecule": "Cc1ccc2nc(NC(=O)CSc3nc4c(c(=O)n3-c3ccccc3)SCC4)sc2c1", "note": "[IWP2, reference compound]", "values": [{"measurement": "total number of NKX2-5+ CD31+ cells", "setting": "[1]; IWP2 added for 4 or 6 days from day 3, day 9", "result": "reduced"}, {"measurement": "frequency of NKX2-5+ CD31+ cells generated", "setting": "[1]; Wnt inhibition, 2 μM IWP2 for 2, 4 or 6 days from day 3, day 9 read-out", "result": "significant reduction"}]}, {"molecule": "c1ccc2c(-c3cnn4cc(-c5ccc(N6CCNCC6)cc5)cnc34)ccnc2c1", "note": "[LDN193189]", "values": [{"measurement": "NKX2-5 expression in endocardial cells", "setting": "[2]; cells isolated from co-cultures and cells treated with BMP10, 8 days, different concentrations of LDN193189", "result": "partial downregulation"}]}, {"molecule": "CS(=O)(=O)CCNCc1ccc(-c2ccc3ncnc(Nc4ccc(OCc5cccc(F)c5)c(Cl)c4)c3c2)o1", "note": "[lapatinib]", "values": [{"measurement": "induction of trabecular myocardium markers by RFP+ CD31+ endocardial-like cells", "setting": "[3]", "result": "inhibited"}, {"measurement": "induction of the trabecular fate by NKX2-5+ CD31+ endocardial-like cells", "setting": "[2]; lapatinib 10 μM, 8 days co-culture, VEGFA 100 ng/ml", "result": "inhibited"}]}, {"molecule": "BMP10: Recombinant human BMP10 (R&D)", "values": [{"measurement": "NRG1 levels in cultured NKX2-5+ CD31+ cells", "setting": "[4]; 8 days, BMP10 10 ng/ml versus BMP4 10 ng/ml, VEGFA 100 ng/ml", "result": "sustained higher levels"}, {"measurement": "maintaining the NKX2-5+ CD31+ cell phenotype", "setting": "[4]; 8 days, VEGFA 100 ng/ml, all concentrations of agonist tested", "result": "more effective than BMP4"}, {"measurement": "NRG1 expression in control endothelial population", "setting": "[4]; BMP10 added during 8-day culture", "result": "did not lead to the upregulation"}, {"measurement": "populations containing CD31+ cells", "setting": "[5]", "result": "None"}, {"measurement": "proportion of NKX2-5+ CD31+ cells generated", "setting": "[1]; BMP 10 ng/ml paired with exogenous bFGF, day 9", "result": "significantly increased"}, {"measurement": "NRG1 expression in induced NKX2-5+ CD31+ population (RT-qPCR)", "setting": "[1]; BMP10-induced versus BMP4-induced cells", "result": "higher levels"}, {"measurement": "fraction of CD105+ cells", "setting": "[1]; BMP10-induced versus BMP4-induced or control endothelial populations", "result": "much larger fraction"}, {"measurement": "total number of NKX2-5+ CD31+ cells at days 8 and 9", "setting": "[1]; BMP10-induced versus BMP4-treated populations", "result": "significantly higher"}, {"measurement": "day of emergence of NKX2-5+ CD31+ cells", "setting": "[1]; BMP agonist with bFGF, populations persisted to day 12", "result": 8, "unit": "days"}, {"measurement": "concentration inducing the highest frequency and number of NKX2-5+ CD31+ cells", "setting": "[1]; days 5-9, in presence of bFGF 50 ng/ml", "result": 10, "unit": "ng/mL"}]}]}
